According to patent publication US12138256B2, “Treatment of cardiopulmonary disorders” (Bayer Aktiengesellschaft, priority 2021, dated 2024):
Values joined by “and” are separate entries in the source; they are usually repeats but may differ in a detail not shown here. Equal entries are not always repeated.

Key:
rabbit saphenous artery = assay: Vasorelaxant effect in vitro: phenylephrine-induced contraction of rabbit saphenous artery rings (C-1.1); settings: mean +/− SEM
Description: Rabbits were anaesthetized and sacrificed by intravenous injection of thiopental sodium (about 50 mg/kg) and exsanguinated. The saphenous artery was removed and divided into rings 3 mm wide. The rings were mounted singly on in each case a pair of triangular hooks open at the end and made of 0.3 mm-thick special wire (Remanium®). Each ring was placed under an initial tension in 5 ml organ baths with Krebs-Henseleit solution which was at 37° C., was gassed with carbogen and had the following composition: NaCl 119 mM; KCl 4.8 mM; CaCl2)×2 H2O 1 mM; MgSO4×7 H2O 1.4 mM; KH2PO41.2 mM; NaHCO325 mM; glucose 10 mM; bovine serum albumin 0.001%. The force of contraction was detected with Statham UC2 cells, amplified and digitized via A/D converters (DAS-1802 HC, Keithley Instruments, Munich) and recorded in parallel on chart recorders. Contractions were induced by addition of phenylephrine.
The concentration necessary to reduce the contraction reached in the preceding control by 50% was calculated from this (IC50). The standard application volume was 5 μl. The proportion of DMSO in the bath solution corresponded to 0.1%.

[1] = system: anesthetized PAH minipigs; assay: PAH minipig model: intratracheal application of dry powder formulations and different hydrates (PennCentury insufflator); format: in vivo, Göttingen minipig; settings: for PAP % changes vs. baseline: 375 μg/kg i.t., each animal; for BP / PAP: micronized 375 μg/kg intratracheal @90 min
Source text: After characterization of the effects of comparative example 11 after nebulization of compound solutions, in a further step the effects of crystalline forms of comparative example 11, e.g. sesquihydrate, e.g. example 6e on PAP and BP after inhaled application of different dry powder lactose formulations (table C2.1.8) were studied in anesthetized PAH minipigs.
As reference pure Lactose vehicle was applied in the beginning of each experiment.

[2] = time not printed, 1st row after 310
[3] = time not printed, 2nd row after 310

Compound: O=C(O)CCCCN(CCc1ccccc1OCc1ccc(CCc2ccccc2)cc1)Cc1ccc(C(=O)O)cc1 [comparative example 1 (Cinaciguat)]
- % contraction (PE-induced contraction of rabbit saphenous artery) (rabbit saphenous artery; 10^−6 M/L, incubation time 0.5 h): 19 ± 6.1%
- % contraction (PE-induced contraction of rabbit saphenous artery) (rabbit saphenous artery; 10^−7 M/L, incubation time 0.5 h): 28 ± 4.2%
- % contraction (PE-induced contraction of rabbit saphenous artery) (rabbit saphenous artery; 10^−7 M/L, incubation time 2.5 h): 33 ± 5.8%
- % contraction (PE-induced contraction of rabbit saphenous artery) (rabbit saphenous artery; 10^−8 M/L, incubation time 0.5 h): 54 ± 5.2%
- % contraction (PE-induced contraction of rabbit saphenous artery) (rabbit saphenous artery; 10^−8 M/L, incubation time 2.5 h): 48 ± 6.0%
- % contraction (PE-induced contraction of rabbit saphenous artery) (rabbit saphenous artery; 10^−9 M/L, incubation time 0.5 h): 85 ± 4.2%
- % contraction (PE-induced contraction of rabbit saphenous artery) (rabbit saphenous artery; 10^−9 M/L, incubation time 2.5 h): 75 ± 4.6%
- % contraction (PE-induced contraction of rabbit saphenous artery) (rabbit saphenous artery; 10^−10 M/L, incubation time 0.5 h): 101 ± 1.7%
- % contraction (PE-induced contraction of rabbit saphenous artery) (rabbit saphenous artery; 10^−10 M/L, incubation time 2.5 h): 93 ± 2.6%
- % contraction (PE-induced contraction of rabbit saphenous artery) (rabbit saphenous artery; 10^−11 M/L, incubation time 0.5 h): 97 ± 1.2%

Compound: O.O.O.O=C(O)c1ccc(CCN(CCc2ccccc2OCc2ccc(-c3ccc(C(F)(F)F)cc3)cc2Cl)[C@H]2CCCc3nc(C(=O)O)ccc32)cc1.O=C(O)c1ccc(CCN(CCc2ccccc2OCc2ccc(-c3ccc(C(F)(F)F)cc3)cc2Cl)[C@H]2CCCc3nc(C(=O)O)ccc32)cc1 [example 6e, (5S)-{[2-(4-Carboxyphenyl)ethyl][2-(2-{[3-chloro-4′-(trifluoromethyl)biphenyl-4-yl]methoxy}phenyl)-ethyl]amino}-5,6,7,8-tetrahydroquinoline-2-carboxylic acid sesquihydrate]
- efficacy with regard to PAP reduction as well as systemic BP reduction ([1]; 1.5 mg/4 kg (=375 μg/kg) intratracheally, micronized): comparable efficacy
- effect on PAP and BP after i.t. application ([1]; lactose formulation I 7.5 μg/kg, II 22.5 μg/kg, micronized sesquihydrate 375 μg/kg, n=3): decrease of PAP without any effects on BP
- time to maximum effect on PAP after i.t. application ([1]; lactose formulation I 7.5 μg/kg, lactose formulation II 22.5 μg/kg, micronized sesquihydrate 375 μg/kg): approximately 80 min
- PAP % changes vs. baseline ([1]; time 80): 100.0%
- PAP % changes vs. baseline ([1]; time 90, sesquihydrate): 98.9% and 103.6% and 99.8%
- PAP % changes vs. baseline ([1]; time 100, sesquihydrate): 99.5% and 101.4% and 97.3%
- PAP % changes vs. baseline ([1]; time 110, sesquihydrate): 89.3% and 98.7% and 86.8%
- PAP % changes vs. baseline ([1]; time 120, sesquihydrate): 84.0% and 95.6% and 75.7%
- PAP % changes vs. baseline ([1]; time 130, sesquihydrate): 78.9% and 93.7% and 70.2%
- PAP % changes vs. baseline ([1]; time 140, sesquihydrate): 75.2% and 91.8% and 67.5%
- PAP % changes vs. baseline ([1]; time 150, sesquihydrate): 74.0% and 76.0% and 65.4%
- PAP % changes vs. baseline ([1]; time 160, sesquihydrate): 71.0% and 79.5% and 65.9%
- PAP % changes vs. baseline ([1]; time 170, sesquihydrate): 68.5% and 74.3% and 61.5%
- PAP % changes vs. baseline ([1]; time 180, sesquihydrate): 63.2% and 80.8% and 62.0%
- PAP % changes vs. baseline ([1]; time 190, sesquihydrate): 61.5% and 80.8% and 58.6%
- PAP % changes vs. baseline ([1]; time 200, sesquihydrate): 62.3% and 80.3% and 60.2%
- PAP % changes vs. baseline ([1]; time 210, sesquihydrate): 61.0% and 80.7% and 59.4%
- PAP % changes vs. baseline ([1]; time 220, sesquihydrate): 59.5% and 86.3% and 57.8%
- PAP % changes vs. baseline ([1]; time 230, sesquihydrate): 58.6% and 82.6% and 57.8%
- PAP % changes vs. baseline ([1]; time 240, sesquihydrate): 59.3% and 81.5% and 57.6%
- PAP % changes vs. baseline ([1]; time 250, sesquihydrate): 59.3% and 82.2% and 56.1%
- PAP % changes vs. baseline ([1]; time 260, sesquihydrate): 58.8% and 82.7% and 57.6%
- PAP % changes vs. baseline ([1]; time 270, sesquihydrate): 59.9% and 78.3% and 55.4%
- PAP % changes vs. baseline ([1]; time 280, sesquihydrate): 58.4% and 78.3% and 55.9%
- PAP % changes vs. baseline ([1]; time 290, sesquihydrate): 57.4% and 79.6% and 53.9%
- PAP % changes vs. baseline ([1]; time 300, sesquihydrate): 60.1% and 78.7% and 54.5%
- PAP % changes vs. baseline ([1]; time 310, sesquihydrate): 58.4% and 77.6% and 53.7%
- PAP % changes vs. baseline ([1]; time 320, sesquihydrate): 61.8% and 76.3% and 55.1%
- PAP % changes vs. baseline ([1]; time 330, sesquihydrate): 61.3% and 74.8% and 53.0%

Compound: O.O.O.O=C(O)c1ccc(CCN(CCc2ccccc2OCc2ccc(-c3ccc(C(F)(F)F)cc3)cc2Cl)[C@H]2CCCc3nc(C(=O)O)ccc32)cc1.O=C(O)c1ccc(CCN(CCc2ccccc2OCc2ccc(-c3ccc(C(F)(F)F)cc3)cc2Cl)[C@H]2CCCc3nc(C(=O)O)ccc32)cc1 [sesquihydrate ex. 6e]
- BP ([1]; time 100): 99 mmHg and 111 mmHg and 117 mmHg
- PAP ([1]; time 100): 40.7 mmHg and 38.7 mmHg and 39.6 mmHg
- BP ([1]; time 110): 101 mmHg and 112 mmHg and 116 mmHg
- PAP ([1]; time 110): 36.5 mmHg and 37.6 mmHg and 35.4 mmHg
- BP ([1]; time 120): 101 mmHg and 114 mmHg and 115 mmHg
- PAP ([1]; time 120): 34.3 mmHg and 36.4 mmHg and 30.8 mmHg
- BP ([1]; time 130): 101 mmHg and 114 mmHg and 115 mmHg
- PAP ([1]; time 130): 32.3 mmHg and 35.7 mmHg and 28.6 mmHg
- BP ([1]; time 140): 99 mmHg and 120 mmHg and 114 mmHg
- PAP ([1]; time 140): 30.8 mmHg and 35.0 mmHg and 27.5 mmHg
- BP ([1]; time 150): 99 mmHg and 121 mmHg and 114 mmHg
- PAP ([1]; time 150): 30.3 mmHg and 29.0 mmHg and 26.6 mmHg
- BP ([1]; time 160): 100 mmHg and 122 mmHg and 114 mmHg
- PAP ([1]; time 160): 29.0 mmHg and 30.3 mmHg and 26.9 mmHg
- BP ([1]; time 170): 101 mmHg and 121 mmHg and 115 mmHg
- PAP ([1]; time 170): 28.0 mmHg and 28.3 mmHg and 25.1 mmHg
- BP ([1]; time 180): 99 mmHg and 119 mmHg and 115 mmHg
- PAP ([1]; time 180): 25.8 mmHg and 30.8 mmHg and 25.3 mmHg
- BP ([1]; time 190): 99 mmHg and 123 mmHg and 114 mmHg
- PAP ([1]; time 190): 25.1 mmHg and 30.8 mmHg and 23.9 mmHg
- BP ([1]; time 200): 98 mmHg and 116 mmHg and 113 mmHg
- PAP ([1]; time 200): 25.5 mmHg and 30.6 mmHg and 24.6 mmHg
- BP ([1]; time 210): 99 mmHg and 117 mmHg and 116 mmHg
- PAP ([1]; time 210): 25.0 mmHg and 30.8 mmHg and 24.2 mmHg
- BP ([1]; time 220): 97 mmHg and 123 mmHg and 114 mmHg
- PAP ([1]; time 220): 24.3 mmHg and 32.9 mmHg and 23.6 mmHg
- BP ([1]; time 230): 97 mmHg and 119 mmHg and 114 mmHg
- PAP ([1]; time 230): 24.0 mmHg and 31.5 mmHg and 23.6 mmHg
- BP ([1]; time 240): 97 mmHg and 119 mmHg and 112 mmHg
- PAP ([1]; time 240): 24.3 mmHg and 31.0 mmHg and 23.5 mmHg
- BP ([1]; time 250): 97 mmHg and 118 mmHg and 111 mmHg
- PAP ([1]; time 250): 24.2 mmHg and 31.3 mmHg and 22.9 mmHg
- BP ([1]; time 260): 96 mmHg and 116 mmHg and 112 mmHg
- PAP ([1]; time 260): 24.0 mmHg and 31.5 mmHg and 23.5 mmHg
- BP ([1]; time 270): 99 mmHg and 115 mmHg and 109 mmHg
- PAP ([1]; time 270): 24.5 mmHg and 29.8 mmHg and 22.6 mmHg
- BP ([1]; time 280): 97 mmHg and 111 mmHg and 110 mmHg
- PAP ([1]; time 280): 23.9 mmHg and 29.8 mmHg and 22.8 mmHg
- BP ([1]; time 290): 97 mmHg and 110 mmHg and 107 mmHg
- PAP ([1]; time 290): 23.5 mmHg and 30.3 mmHg and 22.0 mmHg
- BP ([1]; time 300): 98 mmHg and 109 mmHg and 108 mmHg
- PAP ([1]; time 300): 24.6 mmHg and 30.0 mmHg and 22.2 mmHg
- BP ([1]; time 310): 97 mmHg and 109 mmHg and 105 mmHg
- PAP ([1]; time 310): 23.9 mmHg and 29.6 mmHg and 21.9 mmHg
- BP [1, 2]: 94 mmHg and 108 mmHg and 105 mmHg
- PAP [1, 2]: 25.3 mmHg and 29.1 mmHg and 22.5 mmHg
- BP [1, 3]: 97 mmHg and 108 mmHg and 105 mmHg
- PAP [1, 3]: 25.1 mmHg and 28.5 mmHg and 21.6 mmHg
